Laboratory results published in ChEMBL document CHEMBL1130631, “Synthesis of benzo[c]quinolizin-3-ones: selective non-steroidal inhibitors of steroid 5 alpha-reductase 1” (Bioorg Med Chem Lett, 1998).

What was measured:
[1] = biological target: T1, 3-oxo-5-alpha-steroid 4-dehydrogenase 2 (Homo sapiens, UniProt P31213); assay: Compound was evaluated for the inhibition of human Steroid 5-alpha-reductase type 2 receptor from human prostate homogenates.; format: tissue-based, Prostate gland
T1 sequence (P31213 whole entry): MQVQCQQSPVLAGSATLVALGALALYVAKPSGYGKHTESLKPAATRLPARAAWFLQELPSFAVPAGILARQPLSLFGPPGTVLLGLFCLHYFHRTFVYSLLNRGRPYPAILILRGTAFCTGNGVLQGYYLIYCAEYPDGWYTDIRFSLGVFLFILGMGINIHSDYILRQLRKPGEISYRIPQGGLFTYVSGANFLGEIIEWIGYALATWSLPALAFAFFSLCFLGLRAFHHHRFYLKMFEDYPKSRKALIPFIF

[2] = biological target: T2, 3-oxo-5-alpha-steroid 4-dehydrogenase 1 (Homo sapiens, UniProt P18405); assay: Compound was evaluated for the inhibition of human Steroid 5-alpha-reductase type 1
T2 sequence (P18405 whole entry): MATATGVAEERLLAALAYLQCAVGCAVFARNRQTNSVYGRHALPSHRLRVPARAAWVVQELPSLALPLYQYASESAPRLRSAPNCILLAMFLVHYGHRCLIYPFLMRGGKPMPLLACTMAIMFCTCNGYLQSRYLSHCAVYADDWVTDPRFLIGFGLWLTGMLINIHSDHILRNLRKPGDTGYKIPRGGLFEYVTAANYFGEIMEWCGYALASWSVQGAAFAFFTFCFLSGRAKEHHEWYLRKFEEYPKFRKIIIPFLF

[3] = biological target: T1, 3-oxo-5-alpha-steroid 4-dehydrogenase 2; assay: Compound was evaluated for the inhibition of human Steroid 5-alpha-reductase type 2 from human prostate homogenates.; No inhibition; format: tissue-based, Prostate gland
[4] = biological target: T2, 3-oxo-5-alpha-steroid 4-dehydrogenase 1; assay: Compound was evaluated for the inhibition of human Steroid 5-alpha-reductase type 1 from recombinant CHO cells; format: cell-based
[5] = biological target: T1, 3-oxo-5-alpha-steroid 4-dehydrogenase 2; assay: Compound was evaluated for the inhibition of human Steroid 5-alpha-reductase type 2 receptor from human prostate homogenates; format: tissue-based, Prostate gland
[6] = biological target: T2, 3-oxo-5-alpha-steroid 4-dehydrogenase 1; assay: Compound was evaluated for the inhibition of human Steroid 5-alpha-reductase type 1
[7] = biological target: T1, 3-oxo-5-alpha-steroid 4-dehydrogenase 2; assay: Compound was evaluated for the inhibition of human Steroid 5-alpha-reductase type 2
[8] = biological target: T1, 3-oxo-5-alpha-steroid 4-dehydrogenase 2; assay: Compound was evaluated for the inhibition of human Steroid 5-alpha-reductase type 2 from human prostate homogenates; No inhibition; format: tissue-based, Prostate gland

CC(C)(C)NC(=O)[C@@H]1CCC2C3CCC4=CC(=O)CCN4C3=CC[C@@]21C (stereo not given in full)
IC50 [1]: 0.122 µM
IC50 [2]: 0.127 µM

O=C1C=C2CCc3ccccc3N2CC1
IC50 [3]: Not Active
IC50 [4]: 0.298 µM

CC(C)(C)NC(=O)[C@H]1CC[C@H]2[C@@H]3CC[C@H]4NC(=O)C=C[C@]4(C)[C@H]3CC[C@]12C [FINASTERIDE]
IC50 [5]: 0.0012 µM
IC50 [4]: 0.911 µM

CN1C(=O)CC[C@]2(C)c3ccc(Cl)cc3CCC12 (stereo not given in full)
Ki [6]: 0.009 µM
Ki [7]: > 1 µM

O=C1C=CN2c3ccccc3CCC2C1 (stereo not given)
IC50 [8]: Not Active
IC50 [4]: 5.13 µM
